Test results published in patent US7829589B2, “Sulfonamide compounds and uses thereof” (Elixir Pharmaceuticals, Inc., priority 2005, dated 2010).

Molecular target: GHS-R (Homo sapiens, UniProt Q92847)
Assay: GHS-R antagonist activity (Ki) in a cell based assay
Summary of the method: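 Transfected COS-7 cells were labelled 24 h with [^3H]-myo-inositol and preincubated 30 min at 37 °C in HEPES buffer pH 7.4 with 10 mM LiCl, optionally with 1 U/ml adenosine deaminase. Compound was applied for 45 min at 37 °C. [^3H]-inositol phosphates were extracted with perchloric acid and isolated by anion-exchange resin.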

Sequence of GHS-R (Q92847 whole entry, species assumed): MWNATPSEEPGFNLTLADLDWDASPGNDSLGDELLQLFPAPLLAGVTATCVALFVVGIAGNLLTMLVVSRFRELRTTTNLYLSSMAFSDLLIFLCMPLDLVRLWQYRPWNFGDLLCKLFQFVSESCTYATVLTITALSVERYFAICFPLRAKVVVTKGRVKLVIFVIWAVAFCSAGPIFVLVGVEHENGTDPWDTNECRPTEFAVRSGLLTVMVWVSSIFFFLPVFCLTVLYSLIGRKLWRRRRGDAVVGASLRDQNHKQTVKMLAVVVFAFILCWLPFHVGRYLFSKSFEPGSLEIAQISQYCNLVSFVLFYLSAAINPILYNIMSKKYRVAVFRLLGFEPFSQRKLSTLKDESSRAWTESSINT

Row | SMILES | Ki [nM]
1 | CCN(CC)CCCS(=O)(=O)N[C@H](CCc1ccccc1)c1nc(CCc2ccc(Br)cc2)no1 [Compound 113, 3-Diethylamino-propane-1-sulfonic acid ((R)-1-{3-[2-(4-bromo-phenyl)-ethyl]-[1,2,4]oxadiazol-5-yl}-3-phenyl-propyl)-amide] | < 100
2 | CCN(CC)CCCS(=O)(=O)N[C@H](CCc1ccccc1)c1nc(Cc2ccccc2Cl)no1 [Compound 114, 3-Diethylamino-propane-1-sulfonic acid {(R)-1-[3-(2-chloro-benzyl)-[1,2,4]oxadiazol-5-yl]-3-phenyl-propy}-amide] | < 100
3 | CCN(CC)CCCS(=O)(=O)N[C@H](CCc1ccccc1)c1nc(Cc2ccccc2)no1 [Compound 116, 3-Diethylamino-propane-1-sulfonic acid [(R)-1-(3-benzyl-[1,2,4]oxadiazol-5-yl)-3-phenyl-propyl]-amide] | 100 to 500
4 | CCN(CC)CCCS(=O)(=O)N[C@H](CCc1ccccc1)c1nc(Cc2ccc(C(F)(F)F)cc2)no1 [Compound 117, 3-Diethylamino-propane-1-sulfonic acid {(R)-3-phenyl-1-[3-(4-trifluoromethyl-benzyl)-[1,2,4]oxadiazol-5-yl]-propyl}-amide] | < 100
5 | CCN(CC)CCCS(=O)(=O)N[C@H](CCc1ccccc1)c1nc(-c2cccc3[nH]ccc23)n[nH]1 [Compound 118, 3-Diethylamino-propane-1-sulfonic acid {(R)-1-[5-(1H-indol-4-yl)-2H-[1,2,4]triazol-3-yl]-3-phenyl-propyl}-amide] | < 100
6 | CCN(CC)CCCS(=O)(=O)N[C@H](Cc1ccccc1)c1nc(-c2ccc(OC)cc2)n[nH]1 [Compound 119, 3-Diethylamino-propane-1-sulfonic acid {(R)-1-[5-(4-methoxy-phenyl)-2H-[1,2,4]triazol-3-yl]-2-phenyl-ethyl}-amide] | 100 to 500
7 | CCN(CC)CCCS(=O)(=O)N[C@H](CCc1ccccc1)c1nc(Cc2ccsc2)n[nH]1 [Compound 122, 3-Diethylamino-propane-1-sulfonic acid [(R)-3-phenyl-1-(5-thiophen-3-ylmethyl-2H-[1,2,4]triazol-3-yl)-propyl]-amide] | < 100
8 | CCN(CC)CCCS(=O)(=O)N[C@H](CCc1ccccc1)c1nc(Cn2nnc3ccccc32)n[nH]1 [Compound 124, 3-Diethylamino-propane-1-sulfonic acid [(R)-1-(5-benzotriazol-1-ylmethyl-2H-[1,2,4]triazol-3-yl)-3-phenyl-propyl]-amide] | < 100
9 | CCN(CC)CCCS(=O)(=O)N[C@H](CCc1ccccc1)c1nc(-c2ccc(OC)c(C#N)c2)n[nH]1 [Compound 125, 3-Diethylamino-propane-1-sulfonic acid {(R)-1-[5-(3-cyano-4-methoxy-phenyl)-2H-[1,2,4]triazol-3-yl]-3-phenyl-propyl}-amide] | < 100
10 | CCN(CC)CCCS(=O)(=O)N[C@H](CCc1ccccc1)c1nc(-c2ccc(C#N)c(Cl)c2)n[nH]1 [Compound 126, 3-Diethylamino-propane-1-sulfonic acid {(R)-1-[5-(3-chloro-4-cyano-phenyl)-2H-[1,2,4]triazol-3-yl]-3-phenyl-propyl}-amide] | < 100
11 | CCN(CC)CCCS(=O)(=O)N[C@H](CCc1ccccc1)c1nc(Cc2c[nH]c3ccccc23)n[nH]1 [Compound 127, 3-Diethylamino-propane-1-sulfonic acid {(R)-1-[5-(1H-indol-3-ylmethyl)-2H-[1,2,4]triazol-3-yl]-3phenyl-propyl}-amide] | < 100
12 | CCN(CC)CCCS(=O)(=O)N[C@H](CCc1ccccc1)c1nc(-c2ccc3sccc3c2)n[nH]1 [Compound 129, 3-Diethylamino-propane-1-sulfonic acid [(R)-1-(5-benzo[b]thiophen-5-yl-2H-[1,2,4]triazol-3-yl)-3-phenyl-propyl]-amide] | < 100
13 | CCN(CC)CCCS(=O)(=O)N[C@H](CCc1ccccc1)c1nc(-c2ccc3occc3c2)n[nH]1 [Compound 130, 3-Diethylamino-propane-1-sulfonic acid [(R)-1-(5-benzofuran-5-yl-2H-[1,2,4]triazol-3-yl)-3-phenyl-propyl]-amide] | < 100
14 | CCN(CC)CCCS(=O)(=O)N[C@H](CCc1ccccc1)c1nc(Cc2cc(F)cc(F)c2)n[nH]1 [Compound 132, 3-Diethylamino-propane-1-sulfonic acid {(R)-1-[5-(3,5-difluoro-benzyl)-2H-[1,2,4]triazol-3-yl]-3-phenyl-propyl}-amide] | < 100
15 | CCN(CC)CCCS(=O)(=O)N[C@H](CCc1ccccc1)c1nc(Cc2nc(C)cs2)n[nH]1 [Compound 133, 3-Diethylamino-propane-1-sulfonic acid {(R)-1-[5-(4-methyl-3H-1lambda*4*-thiazol-2-ylmethyl)-2H-[1,2,4]triazol-3-yl]-3-phenyl-propyl}-amide] | < 100
16 | CCN(CC)CCCS(=O)(=O)N[C@H](CCc1ccccc1)c1nc(C2CNc3ccccc3O2)n[nH]1 (stereo partly drawn) [Compound 136, 3-Diethylamino-propane-1-sulfonic acid {(R)-1-[5-(3,4-dihydro-2H-benzo[1,4]oxazin-2-yl)-2H-[1,2,4]triazol-3-yl]-3-phenyl-propyl}-amide] | < 100
17 | CCN(CC)CCCS(=O)(=O)N[C@H](CCc1ccccc1)c1nc(C2CCCCC2)n[nH]1 [Compound 139, 3-Diethylamino-propane-1-sulfonic acid [(R)-1-(5-cyclohexyl-2H-[1,2,4]triazol-3-yl)-3-phenyl-propyl]-amide] | < 100
18 | CCN(CC)CCCS(=O)(=O)N1CCC[C@H]1c1nc(Cc2ccc(Br)cc2)no1 [Compound 142, (S)-(3-{2-[3-(4-Bromo-benzyl)-[1,2,4]oxadiazol-5-yl]-pyrrolidine-1-sulfonyl}-propyl)-diethyl-amine] | 100 to 500
19 | CCN(CC)CCCS(=O)(=O)N1CCC[C@H]1c1nc(-c2ccc(OC)cc2)no1 [Compound 143, (S)-Diethyl-(3-{2-[3-(4-methoxy-phenyl)-[1,2,4]oxadiazol-5-yl]-pyrrolidine-1-sulfonyl}-propyl)-amine] | 100 to 500
20 | CCN(CC)CCCS(=O)(=O)N1CCC[C@@H]1c1nc(-c2ccc(OC)cc2)no1 [Compound 144, (R)-Diethyl-(3-{2-[3-(4-methoxy-phenyl)-[1,2,4]oxadiazol-5-yl]-pyrrolidine-1-sulfonyl}-propyl)-amine] | 100 to 500
21 | CCN(CC)CCCS(=O)(=O)N1CCC[C@@H]1c1nc(Cc2ccc(Br)cc2)no1 [Compound 145, (R)-(3-{2-[3-(4-Bromo-benzyl)-[1,2,4]oxadiazol-5-yl]-pyrrolidine-1-sulfonyl}-propyl)-diethyl-amine] | 100 to 500
22 | CCN(CC)CCCS(=O)(=O)N[C@@H](C)c1nc(Cc2ccc(Br)cc2)no1 [Compound 146, (S)-3-Diethylamino-propane-1-sulfonic acid {1-[3-(4-bromo-benzyl)-[1,2,4]oxadiazol-5-yl]-ethyl}-amide] | 100 to 500

Second part, the compound after the results:

Row | Ki [nM] | SMILES
23 | < 100 | CCN(CC)CCCS(=O)(=O)N[C@H](CCc1ccccc1)c1nc(-c2ccc(OC)cc2F)n[nH]1 [Compound 115, 3-Diethylamino-propane-1-sulfonic acid {(R)-1-[5-(2-fluoro-4-methoxy-phenyl)-2H-[1,2,4]triazol-3-yl]-3-phenyl-propyl}-amide]
24 | < 100 | CCN(CC)CCCS(=O)(=O)N[C@H](CCc1ccccc1)c1nc(-c2ccc(O)cc2)n[nH]1 [Compound 120, 3-Diethylamino-propane-1-sulfonic acid {(R)-1-[5-(4-hydroxy-phenyl)-2H-[1,2,4]triazol-3-yl]-3-phenyl-propyl}-amide]
25 | < 100 | CCN(CC)CCCS(=O)(=O)N[C@H](CCc1ccccc1)c1nc(-c2cccc(O)c2)n[nH]1 [Compound 121, 3-Diethylamino-propane-1-sulfonic acid {(R)-1-[5-(3-hydroxy-phenyl)-2H-[1,2,4]triazol-3-yl]-3-phenyl-propyl}-amide]
26 | < 100 | CCN(CC)CCCS(=O)(=O)N[C@H](CCc1ccccc1)c1nc(-c2cccc(SC)c2)n[nH]1 [Compound 123, 3-Diethylamino-propane-1-sulfonic acid {(R)-1-[5-(3-methylsulfanyl-phenyl)-2H-[1,2,4]triazol-3-yl]-3-phenyl-propyl}-amide]
27 | < 100 | CCN(CC)CCCS(=O)(=O)N[C@H](CCc1ccccc1)c1nc(-c2ccc(F)c(C#N)c2)n[nH]1 [Compound 128, 3-Diethylamino-propane-1-sulfonic acid {(R)-1-[5-(3-cyano-4-fluoro-phenyl)-2H-[1,2,4]triazol-3-yl]-3-phenyl-propyl}-amide]
28 | < 100 | CCN(CC)CCCS(=O)(=O)N[C@H](CCc1ccccc1)c1nc(-c2cn(C)cn2)n[nH]1 [Compound 131, 3-Diethylamino-propane-1-sulfonic acid {(R)-1-[5-(1-methyl-1H-imidazol-4-yl)-2H-[1,2,4]triazol-3-yl]-3-phenyl-propyl}-amide]
29 | 100 to 500 | CCN(CC)CCCS(=O)(=O)N[C@H](CCc1ccccc1)c1nc(-c2ccc3nccn3c2)n[nH]1 [Compound 134, 3-Diethylamino-propane-1-sulfonic acid {(R)-1-[5-(1H-imidazo[1,2,-a]pyridin-6-yl)-2H-[1,2,4]triazol-3-yl]-3-phenyl-propyl}-amide]
30 | < 100 | CCN(CC)CCCS(=O)(=O)N[C@H](CCc1ccccc1)c1nc(-c2cncn2C)n[nH]1 [Compound 135]
31 | < 100 | CCN(CC)CCCS(=O)(=O)N[C@H](CCc1ccccc1)c1nc(-c2csc(C)n2)n[nH]1 [Compound 137, 3-Diethylamino-propane-1-sulfonic acid {(R)-1-[5-(2-methyl-thiazol-4-yl)-2H-[1,2,4]triazol-3-yl]-3-phenyl-propyl}-amide]
32 | < 100 | CCN(CC)CCCS(=O)(=O)N[C@H](CCc1ccccc1)c1nc(-c2ccc(OC)nc2)n[nH]1 [Compound 138, 3-Diethylamino-propane-1-sulfonic acid {(R)-1-[5-(6-methoxy-pyridin-3-yl)-2H-[1,2,4]triazol-3-yl]-3-phenyl-propyl}-amide]
